The values that follow come from patent US20100137313A1 (ASTRAZENECA AB, priority 2008, published 2010).

S. pneumoniae Topoisomerase IV ATPase (ParE), sequence (Q59961 whole entry): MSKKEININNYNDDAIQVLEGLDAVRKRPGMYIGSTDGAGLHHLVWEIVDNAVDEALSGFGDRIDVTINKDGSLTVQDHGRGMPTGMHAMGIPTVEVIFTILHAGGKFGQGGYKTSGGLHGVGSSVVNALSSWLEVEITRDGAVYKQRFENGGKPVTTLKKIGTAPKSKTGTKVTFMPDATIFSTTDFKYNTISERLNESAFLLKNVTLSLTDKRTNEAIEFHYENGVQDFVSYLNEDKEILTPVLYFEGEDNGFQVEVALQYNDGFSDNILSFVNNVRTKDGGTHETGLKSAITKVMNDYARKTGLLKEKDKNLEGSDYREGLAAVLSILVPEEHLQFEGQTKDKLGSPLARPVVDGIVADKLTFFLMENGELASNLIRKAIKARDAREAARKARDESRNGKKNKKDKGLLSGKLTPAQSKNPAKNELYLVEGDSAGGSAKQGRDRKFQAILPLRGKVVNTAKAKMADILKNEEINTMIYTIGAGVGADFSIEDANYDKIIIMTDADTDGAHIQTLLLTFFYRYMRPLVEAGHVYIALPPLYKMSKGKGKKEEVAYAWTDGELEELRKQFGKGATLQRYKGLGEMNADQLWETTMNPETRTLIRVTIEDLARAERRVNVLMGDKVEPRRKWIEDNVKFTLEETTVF

The assay has as its target S. pneumoniae Topoisomerase IV ATPase (ParE) (Streptococcus pneumoniae serotype 4, UniProt Q59961). Nature of the assay: S. pneumoniae Topoisomerase IV ATPase inhibition. The following applies: values marked * are an average of two or more data points, read-out: % Inh (13 μM) of S. pneumoniae Topoisomerase IV ATPase. In kind it is biochemical. In short, it runs like this:
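Phosphate-release ATPase assay: 1.25 nM ParE, 160 μM ATP, DNA-stimulated. Quench with malachite green/molybdate in 1 M HCl, read 650 nm; IC50 from 10-point dose series.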
`CN(C)CCCNc1nc(Nc2ccc(F)c(Cl)c2)ncc1-c1cn([Si](C)(C)C(C)(C)C)c2ccccc12` [Example 16, 5-[1-(tert-butyldimethylsilyl)-1H-indol-3-yl]-N^2-(3-chloro-4-fluorophenyl)-N^4-[3-(dimethylamino)propyl] pyrimidin-2,4-diamine]: the inhibition at 13 µM came out at 55.3%. For the molecule `CCNS(=O)(=O)c1cccc(-c2cnc(Nc3ccc(F)c(Cl)c3)nc2-n2ccc(C(F)(F)F)n2)c1` [Example 995, 3-(2-(3-Chloro-4-fluorophenylamino)-4-(3-(trifluoromethyl)-1H-pyrazol-1-yl)pyrimidin-5-yl)-N-ethylbenzenesulfonamide], the inhibition at 13 µM was determined as 89%. On to `CCOC(=O)c1cncc(-c2cnc(Nc3ccc(F)c(Cl)c3)nc2NCCCOC)c1` [Example 143, ethyl 5-(2-(3-chloro-4-fluorophenylamino)-4-(3-methoxypropylamino)pyrimidin-5-yl)nicotinate], for which the inhibition at 13 µM is 88.6%.

As to `COCCCNc1nc(Nc2ccc(F)c(Cl)c2)ncc1-c1nc(-c2ccncc2)cs1` [Example 500, N^2-(3-chloro-4-fluorophenyl)-N^4-(3-methoxypropyl)-5-[4-(pyridin-4-yl)-1,3-thiazol-2-yl]pyrimidine-2,4-diamine], the inhibition at 13 µM stood at 83%.

As for `Fc1ccc(Nc2ncc(-c3cncnc3)c(NCc3ccccn3)n2)cc1Cl` [Example 38, N^2-(3-chloro-4-fluorophenyl)-N^4-(pyridin-2-ylmethyl)-5-pyrimidin-5-ylpyrimidine-2,4-diamine], the inhibition at 13 µM turned out to be 62.3%. For `Fc1ccc(Nc2ncc(-c3cncnc3)c(-n3nccn3)n2)cc1Cl` [Example 86, N-(3-chloro-4-fluorophenyl)-4-(2H-1,2,3-triazol-2-yl)-5,5′-bipyrimidin-2-amine], the inhibition at 13 µM was found to be 91.1%. With `CONC(=O)c1cncc(-c2cnc(Nc3ccc(F)c(Cl)c3)nc2-n2nc(C(F)(F)F)cc2C)c1` [Example 933, 5-(2-(3-chloro-4-fluorophenylamino)-4-(5-methyl-3-(trifluoromethyl)-1H-pyrazol-1-yl)pyrimidin-5-yl)-N-methoxynicotinamide], the inhibition at 13 µM is 100%. Turning to `COc1cc(Nc2ncc(-c3cnc(OC)c(-c4noc(=O)[nH]4)c3)c(-n3nc(C(F)(F)F)cc3C)n2)cc(OC)c1` [Example 975, 3-(5-(2-(3,5-dimethoxyphenylamino)-4-(5-methyl-3-(trifluoromethyl)-1H-pyrazol-1-yl)pyrimidin-5-yl)-2-methoxypyridin-3-yl)-1,2,4-oxadiazol-5(4H)-one], the inhibition at 13 µM came to 100%. With `CCOC(=O)/C=C/c1cccc(-c2cnc(Nc3ccc(F)c(Cl)c3)nc2N2CCN(C(=O)N(C)C)CC2)c1` [Example 164, (E)-ethyl 3-(3-(2-(3-chloro-4-fluorophenylamino)-4-(4-(dimethylcarbamoyl)piperazin-1-yl)pyrimidin-5-yl)phenyl)acrylate] the figure was 47%; with `CN(C)CCNc1nc(Nc2ccc(F)c(Cl)c2)ncc1-c1cncc(C(=O)O)c1` [Example 220, 5-[2-(3-Chloro-4-fluoro-phenylamino)-4-(2-dimethylamino-ethylamino)-pyrimidin-5-yl]-nicotinic acid], 79%.

As to `COc1cc(Nc2ncc(-c3cnc(OC)c(C(=O)NS(=O)(=O)c4sc(C)nc4C)c3)c(-n3nc(C(F)(F)F)cc3C)n2)cc(OC)c1` [Example 837, 5-{2-[(3,5-dimethoxyphenyl)amino]-4-[5-methyl-3-(trifluoromethyl)-1H-pyrazol-1-yl]pyrimidin-5-yl}-N-[(2,4-dimethyl-1,3-thiazol-5-yl)sulfonyl]-2-methoxypyridine-3-carboxamide], the inhibition at 13 µM amounted to 94%. The figure for `CS(=O)(=O)CC(=O)c1cncc(-c2cnc(Nc3ccc(F)c(Cl)c3)nc2-n2ccc(C(F)(F)F)n2)c1` [Example 993, 1-(5-(2-(3-chloro-4-fluorophenylamino)-4-(3-(trifluoromethyl)-1H-pyrazol-1-yl)pyrimidin-5-yl)pyridin-3-yl)-2-(methylsulfonyl)ethanone] is 100%; for `COc1cc(Nc2ncc(-c3cncc(C(=O)O)c3)c(-n3ccc(C(F)(F)F)n3)n2)cc(S(C)(=O)=O)c1` [Example 672, 5-(2-{[3-methoxy-5-(methylsulfonyl)phenyl]amino}-4-[3-(trifluoromethyl)-1H-pyrazol-1-yl]pyrimidin-5-yl)pyridine-3-carboxylic acid] it is 100%. For the molecule `CCOC(=O)c1cncc(-c2cnc(Nc3ccc(F)c(Cl)c3)nc2N2CCC(OC)CC2)c1` [Example 122, ethyl 5-[2-[3-chloro-4-fluorophenyl)amino]-4-(4-methoxypiperidin-1-yl)pyrimidin-5-yl]pyridine-3-carboxylate], the inhibition at 13 µM turned out to be 57.9%. With `COCCCNc1nc(Nc2ccc(F)c(Cl)c2)ncc1-c1ccc(C(=O)O)s1` [Example 178, 5-(2-(3-chloro-4-fluorophenylamino)-4-(3-methoxypropylamino)-pyrimidin-5-yl)thiophene-2-carboxylic acid] the figure was 83%; with `COc1cc(Nc2ncc(-c3cncc(C(=O)O)c3)c(-n3ccc(C(F)(F)F)n3)n2)cc(OC)c1` [Example 635, 5-{2-[(3,5-Dimethoxyphenyl)amino]-4-[3-(trifluoromethyl)-1H-pyrazol-1-yl]pyrimidin-5-yl}pyridine-3-carboxylic acid], 100%; with `O=C(O)c1cn(CCN2CCOCC2)c2ccc(-c3cnc(Nc4ccc(F)c(Cl)c4)nc3-n3ccc(C(F)(F)F)n3)cc2c1=O` [Example 1069, 6-(2-(3-Chloro-4-fluorophenylamino)-4-(3-(trifluoromethyl)-1H-pyrazol-1-yl)pyrimidin-5-yl)-1-(2-morpholinoethyl)-4-oxo-1,4-dihydroquinoline-3-carboxylic acid], 100%.

Consider `CCOC(=O)c1cncc(-c2cnc(Nc3ccc(F)c(Cl)c3)nc2N2CCC(F)CC2)c1` [Example 121, ethyl 5-[2-[(3-chloro-4-fluorophenyl)amino]-4-(4-fluoropiperidin-1-yl)pyrimidin-5-yl]pyridine-3-carboxylate], for which the inhibition at 13 µM is 49.6%. `COCC(COC)Oc1ncc(-c2cnc(Nc3ccc(F)c(Cl)c3)nc2-n2ccc(C(F)(F)F)n2)cc1C(=O)O` [Example 869, 5-(2-(3-chloro-4-fluorophenylamino)-4-(3-(trifluoromethyl)-1H-pyrazol-1-yl)pyrimidin-5-yl)-2-(1,3-dimethoxypropan-2-yloxy)nicotinic acid]: the inhibition at 13 µM is 93%. With `CN(C)CCCNc1nc(Nc2ccc(F)c(Cl)c2)ncc1-c1ccc(F)c(C#N)c1` [Example 13, 5-{2-(3-chloro-4-fluorophenylamino)-4-[3-(dimethylamino)propylamino]pyrimidin-5-yl}-2-fluorobenzonitrile], the inhibition at 13 µM is 102%. The figure for `COc1ncc(-c2cnc(Nc3cc(Cl)cc(C#N)c3)nc2-n2ccc(C(F)(F)F)n2)cc1C(=O)O` [Example 917, 5-(2-(3-chloro-5-cyanophenylamino)-4-(3-(trifluoromethyl)-1H-pyrazol-1-yl)pyrimidin-5-yl)-2-methoxynicotinic acid] is 100%; for `O=C(O)/C=C/c1cccc(-c2cnc(Nc3cc(F)cc(Cl)c3)nc2N2CCOCC2)c1` [Example 409, (E)-3-{3-[2-(3-Chloro-5-fluoro-phenylamino)-4-morpholin-4-yl-pyrimidin-5-yl]-phenyl}-acrylic acid] it is 77%; for `COc1cc(Nc2ncc(-c3cc(C(=O)NS(C)(=O)=O)c(=O)n(C)c3)c(-n3nc(C(F)(F)F)cc3C)n2)cc(OC)c1` [Example 1026] it is 98%.

For `O=C(O)c1cncc(-c2cnc(Nc3ccc(F)c(Cl)c3)nc2NCCc2ccncc2)c1` [Example 230, 5-[2-(3-Chloro-4-fluoro-phenylamino)-4-(2-pyridin-4-yl-ethylamino)-pyrimidin-5-yl]-nicotinic acid], the inhibition at 13 µM amounted to 79.6%. With `O=C(O)c1cc(-c2cnc(Nc3ccc(F)c(Cl)c3)nc2-n2ccc(C(F)(F)F)n2)cn(CCN2CCOCC2)c1=O` [Example 1075, 5-(2-(3-Chloro-4-fluorophenylamino)-4-(3-(trifluoromethyl)-1H-pyrazol-1-yl)pyrimidin-5-yl)-1-(2-morpholinoethyl)-2-oxo-1,2-dihydropyridine-3-carboxylic acid] the figure was 97%; with `COCCn1cc(-c2cnc(Nc3cc(OC)cc(OC)c3)nc2-n2ccc(C(F)(F)F)n2)cc(C(=O)NS(C)(=O)=O)c1=O` [Example 1163, 5-(2-(3,5-dimethoxyphenylamino)-4-(3-(trifluoromethyl)-1H-pyrazol-1-yl)pyrimidin-5-yl)-1-(2-methoxyethyl)-N-(methylsulfonyl)-2-oxo-1,2-dihydropyridine-3-carboxamide], 100%. The figure for `COCCCNc1nc(Nc2ccc(F)c(Cl)c2)ncc1-c1nc(C(=O)O)cs1` [Example 912, 2-(2-(3-chloro-4-fluorophenylamino)-4-(3-methoxypropylamino)pyrimidin-5-yl)thiazol-4-carboxylic acid] is 99%. The figure for `COc1cc(Nc2ncc(-c3ccc(C(=O)O)s3)c(-n3nc(C(F)(F)F)cc3C)n2)cc(C(F)(F)F)c1` [Example 883, 5-(2-(3-methoxy-5-(trifluoromethyl)phenylamino)-4-(5-methyl-3-(trifluoromethyl)-1H-pyrazol-1-yl)pyrimidin-5-yl)thiophene-2-carboxylic acid] is 99%; for `COc1ncc(-c2cnc(Nc3cc(C)cc(C)c3)nc2-n2nc(C(F)(F)F)cc2C)cc1C(=O)O` [Example 646, 5-{2-[(3,5-dimethylphenyl)amino]-4-[5-methyl-3-(trifluoromethyl)-1H-pyrazol-1-yl]pyrimidin-5-yl}-2-methoxypyridine-3-carboxylic acid] it is 100%.
